The values that follow come from patent US20120202690A1, “HERBICIDAL COMPOUNDS” (SYNGENTA LIMITED, priority 2009, published 2012).

Format in all cases: in vivo
Experiment [1] has as its system Amaranthus retroflexus (AMARE). Nature of the experiment: Post-emergence biological efficacy, glasshouse, 500 or 1000 g/ha, evaluated after 13 days (100=total damage to plant; 0=no damage to plant). The note with it: Amaranthus retroflexus, 312 h, rate 1,000 g/ha, read-out: Percentage damage caused to weed species, post-emergence, AMARE. Summed up:
(§1)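 Plants raised from seed in pots of standard soil receive the spray after emergence. They then grow on under controlled glasshouse conditions (24/16° C. day/night, 14 hours light, 65% humidity) and are watered twice a day.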

Experiment [2] deals with Setaria faberi (SETFA). The description is as above. The note with it: Setaria faberi, 312 h, rate 1,000 g/ha, read-out: Percentage damage caused to weed species, post-emergence, SETFA. The gist of the method:
as §1

For experiment [3], the system named is Solanum nigrum (SOLNI). The description is as above. Conditions: Solanum nigrum, 312 h, rate 1,000 g/ha, read-out: Percentage damage caused to weed species, post-emergence, SOLNI. The gist of the method:
as §1

In experiment [4] the test system is Echinochloa crusgaffi (ECHCG). The experiment is described as above. The note with it: Echinochloa, 312 h, rate 1,000 g/ha, read-out: Percentage damage caused to weed species, post-emergence, ECHCG. The gist of the method: as §1
The test system of experiment [5] is Alopecurus myosuroides (ALOMY). Described as above. Conditions: Alopecurus myosuroides, 312 h, rate 1,000 g/ha, read-out: Percentage damage caused to weed species, post-emergence, ALOMY. The gist of the method:
as §1

For experiment [6], the system named is Ipomoea hederaceae (IPOHE). Described as above. The note with it: Ipomoea, 312 h, rate 1,000 g/ha, read-out: Percentage damage caused to weed species, post-emergence, IPOHE. Summed up: as §1
Experiment [7] deals with Echinochloa crus-galli (ECHCG). Nature of the experiment: Pre-emergence biological efficacy, glasshouse, 1000 g/ha, evaluated after 13 days (100=total damage to plant; 0=no damage to plant). The note with it: Echinochloa crus-galli, 312 h, rate 1,000 g/ha, read-out: Percentage damage caused to weed species, pre-emergence, ECHCG. The gist of the method: (§2)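 Glasshouse conditions were controlled at 24/16° C. day/night with a 14-hour photoperiod and 65% humidity; pots contained standard soil into which seeds had been sown, and plants were watered twice daily.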

For experiment [8], the system named is Amaranthus retroflexus (AMARE). The experiment is described as above. Conditions: Amaranthus retroflexus, 312 h, rate 1,000 g/ha, read-out: Percentage damage caused to weed species, pre-emergence, AMARE. Summed up:
as §2

Experiment [9] concerns Setaria faberi (SETFA). Described as above. Conditions: Setaria faberi, 312 h, rate 1,000 g/ha, read-out: Percentage damage caused to weed species, pre-emergence, SETFA. The gist of the method: as §2
Experiment [10] concerns Solanum nigrum (SOLNI). The experiment is described as above. Conditions: Solanum nigrum, 312 h, rate 1,000 g/ha, read-out: Percentage damage caused to weed species, pre-emergence, SOLNI. The gist of the method: as §2
Experiment [11] concerns Alopecurus myosuroides (ALOMY). The experiment is described as above. The note with it: Alopecurus myosuroides, 312 h, rate 1,000 g/ha, read-out: Percentage damage caused to weed species, pre-emergence, ALOMY. The gist of the method:
as §2

The subject of experiment [12] is Ipomoea hederaceae (IPOHE). Described as above. Conditions: Ipomoea, 312 h, rate 1,000 g/ha, read-out: Percentage damage caused to weed species, pre-emergence, IPOHE. The gist of the method: as §2

For the molecule `COC(=O)c1nc(C2CC2)nc2c1cc(C)n2Cc1ccccc1[N+](=O)[O-]` [Compound 8-6, 2-Cyclopropyl-4-methoxycarbonyl-6-methyl-7-(2-nitrophenyl-methyl)-7H-pyrrolo[2,3-d]pyrimidine], the pest or weed control at 1000 g/ha in experiment [1] turned out to be 20%; with Setaria faberi (SETFA) [2], 0%; with Solanum nigrum (SOLNI) [3], 20%; in experiment [4], 0%; in experiment [5], 0%; in experiment [6], 50%. Further, the pest or weed control at 1000 g/ha (in experiment [7]; in experiment [8]; in the experiment on Setaria faberi (SETFA) [9]; in the experiment on Solanum nigrum (SOLNI) [10]; in experiment [11]; in experiment [12]) was 0% throughout.
Turning to `O=C(O)c1nc(-c2ccc(Cl)c(F)c2)nc2c1ccn2Cc1ccccc1[N+](=O)[O-]` [Compound 8-17, 4-Carboxy-2-(4-chloro-3-fluorophenyl)-7-(2-nitropheny-methyl)-7H-pyrrolo[2,3-d]pyrimidine], the pest or weed control at 1000 g/ha in experiment [1] amounted to 20%; in the experiment on Setaria faberi (SETFA) [2], 0%; in the experiment on Solanum nigrum (SOLNI) [3], 50%; in experiment [4], 0%; in [5], 0%; in experiment [6], 50%. Moreover, the pest or weed control at 1000 g/ha (in experiment [7]; in experiment [8]; with Setaria faberi (SETFA) [9]; with Solanum nigrum (SOLNI) [10]; in experiment [11]; in experiment [12]) was 0% in each case.
Consider `COC(=O)c1nc(-c2ccc(Cl)c(F)c2)nc2c1ccn2Cc1ccccc1[N+](=O)[O-]` [Compound 8-18, 2-(4-Chloro-3-fluorophenyl)-4-methoxycarbonyl-7-(2-nitrophenyl-methyl)-7H-pyrrolo[2,3-d]pyrimidine], for which the pest or weed control at 1000 g/ha in experiment [1] amounted to 0%; with Setaria faberi (SETFA) [2], 0%; in the experiment with Solanum nigrum (SOLNI) [3], 30%; in experiment [4], 0%; in [5], 0%; in [6], 20%. In addition, the pest or weed control at 1000 g/ha (in [7]; in experiment [8]; in the experiment on Setaria faberi (SETFA) [9]; in the experiment on Solanum nigrum (SOLNI) [10]; in [11]; in [12]) was 0% in each case.
Consider `COc1c(Cl)ccc(-c2nc(C(=O)O)c3c(C)cn(Cc4ccccc4[N+](=O)[O-])c3n2)c1F` [Compound 8-63, 4-Carboxy-2-(4-chloro-2-fluoro-3-methoxyphenyl)-5-methyl-7-(2-nitrophenyl-methyl)-7H-pyrrolo[2 ,3-d]pyrimidine], for which the pest or weed control at 1000 g/ha in experiment [1] is 70%; in the experiment on Setaria faberi (SETFA) [2] it was 20%; with Solanum nigrum (SOLNI) [3], 80%; in experiment [4], 50%; in [5] it was 10%; in experiment [6], 60%. Moreover, the pest or weed control at 1000 g/ha stood at 0% in experiment [7]; 10% in [8]; 0% with Setaria faberi (SETFA) [9]; 40% with Solanum nigrum (SOLNI) [10]; 0% in experiment [11]; 30% in [12].
For the molecule `COc1c(Cl)ccc(-c2nc(C(=O)O)c3cc(C)n(Cc4ccccc4[N+](=O)[O-])c3n2)c1F` [Compound 8-65, 4-Carboxy-2-(4-chloro-2-fluoro-3-methoxyphenyl)-6-methyl-7-(2-nitrophenyl-methyl)-7H-pyrrolo[2,3-d]pyrimidine], the pest or weed control at 1000 g/ha in [1] amounted to 0%; with Setaria faberi (SETFA) [2], 20%; in the experiment on Solanum nigrum (SOLNI) [3] it was 10%; in experiment [4], 0%; in experiment [5], 0%; in [6], 10%. Besides, the pest or weed control at 1000 g/ha (in [7]; in [8]; with Setaria faberi (SETFA) [9]; with Solanum nigrum (SOLNI) [10]; in [11]; in experiment [12]) was 0% throughout.
In the case of `COC(=O)c1nc(-c2ccc(Cl)c(OC)c2F)nc2c1cc(C)n2Cc1ccccc1[N+](=O)[O-]` [Compound 8-66, 2-(4-Chloro-2-fluoro-3-methoxyphenyl)-4-methoxycarbonyl-6-methyl-7-(2-nitrophenyl-methyl)-7H-pyrrolo[2,3-d]pyrimidine], the pest or weed control at 1000 g/ha in experiment [1] is 0%; with Setaria faberi (SETFA) [2], 0%; in the experiment on Solanum nigrum (SOLNI) [3], 30%; in experiment [4], 0%; in experiment [5] it was 0%; in [6], 10%. For the same molecule, the pest or weed control at 1000 g/ha in experiment [7] came out at 0%; in experiment [8], 10%; in the experiment with Setaria faberi (SETFA) [9], 0%; with Solanum nigrum (SOLNI) [10] it was 10%; in [11], 0%; in experiment [12] it was 0%.
On to `COc1c(Cl)ccc(-c2nc(C(=O)O)c3c(C)cn(Cc4ccc(F)cc4)c3n2)c1F` [Compound 9-63], for which the pest or weed control at 1000 g/ha was found to be 20% in [1]; 0% in the experiment on Setaria faberi (SETFA) [2]; 60% in the experiment with Solanum nigrum (SOLNI) [3]; 0% in experiment [4]; 0% in [5]; 40% in experiment [6]. The pest or weed control at 1000 g/ha in experiment [7] was 0%; in experiment [8], 20%; with Setaria faberi (SETFA) [9], 0%; in the experiment with Solanum nigrum (SOLNI) [10], 10%; in [11], 0%; in experiment [12], 0%.
Regarding `COc1ccc(Cn2cc(C)c3c(C(=O)O)nc(-c4ccc(Cl)c(OC)c4F)nc32)cc1` [Compound 10-63, 4-Carboxy-2-(4-chloro-2-fluoro-3-methoxyphenyl)-7-(4-methoxyphenyl-methyl)-5-methyl-7H-pyrrolo[2,3-d]pyrimidine], the pest or weed control at 1000 g/ha in experiment [1] came to 10%; with Setaria faberi (SETFA) [2], 0%; in the experiment on Solanum nigrum (SOLNI) [3], 20%; in experiment [4] it was 0%; in experiment [5], 0%; in experiment [6], 20%. In addition, the pest or weed control at 1000 g/ha (in experiment [7]; in experiment [8]; with Setaria faberi (SETFA) [9]; in the experiment on Solanum nigrum (SOLNI) [10]; in [11]; in [12]) was 0% throughout.
Consider `COC(=O)c1nc(-c2ccc(Cl)c(F)c2)nc2c1ccn2Cc1ccco1` [Compound 11-18, 2-(4-Chloro-3-fluorophenyl)-7-(2-furanyl-methyl)-4-methoxycarbonyl-7H-pyrrolo[2,3-d]pyrimidine], for which the pest or weed control at 1000 g/ha worked out at 0% in experiment [1]; 0% with Setaria faberi (SETFA) [2]; 50% with Solanum nigrum (SOLNI) [3]; 0% in experiment [4]; 0% in experiment [5]; 20% in experiment [6]. Moreover, the pest or weed control at 1000 g/ha (in experiment [7]; in [8]; with Setaria faberi (SETFA) [9]; in the experiment on Solanum nigrum (SOLNI) [10]; in experiment [11]; in [12]) was 0% each time.
